The source of these data is paper PMC8659057, “Chemical Constituents from the Wild Atractylodes macrocephala Koidz and Acetylcholinesterase Inhibitory Activity Evaluation as Well as Molecular Docking Study” (Molecules, 2021).

For this experiment, the target named is acetylcholinesterase (AChE, Type VI-S, from electric eel) (Electrophorus electricus, UniProt O42275). Briefly: modified Ellman colorimetric AChE inhibition assay. Format: biochemical. (Ellman's reagent forms a yellow product with free thiols.)
acetylcholinesterase (AChE, Type VI-S, from electric eel), sequence (O42275 24-633): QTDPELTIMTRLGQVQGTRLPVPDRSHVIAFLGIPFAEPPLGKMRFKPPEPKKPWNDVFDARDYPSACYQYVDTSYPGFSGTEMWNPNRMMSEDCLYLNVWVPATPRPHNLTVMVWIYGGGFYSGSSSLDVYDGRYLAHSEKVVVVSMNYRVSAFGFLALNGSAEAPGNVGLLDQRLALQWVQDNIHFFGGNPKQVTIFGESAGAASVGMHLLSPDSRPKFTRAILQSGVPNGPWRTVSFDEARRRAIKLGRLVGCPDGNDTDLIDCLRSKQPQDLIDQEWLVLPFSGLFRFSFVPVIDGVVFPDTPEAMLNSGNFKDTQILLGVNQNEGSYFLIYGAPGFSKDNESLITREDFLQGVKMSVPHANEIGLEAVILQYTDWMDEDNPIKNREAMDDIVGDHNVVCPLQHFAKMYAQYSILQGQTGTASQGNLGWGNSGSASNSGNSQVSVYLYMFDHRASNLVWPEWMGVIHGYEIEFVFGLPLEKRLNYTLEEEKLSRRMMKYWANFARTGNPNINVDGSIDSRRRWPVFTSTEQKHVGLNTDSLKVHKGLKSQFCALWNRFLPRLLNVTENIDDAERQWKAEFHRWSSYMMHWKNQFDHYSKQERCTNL

SMILES strings stand for the structures. Read-outs that look alike come from different tables or passages of the source.

In general, IC50 refers to the concentration at which inhibition is half-maximal. As to `C=C1CCC[C@]2(C)C[C@]3(O)OC(=O)C(C)=C3C[C@@H]12` [compound 1, atractylenolide III], where the note is “read-out: IC50 (converted)”, the IC50 was 247 µM.

Consider `C=C1C(OC(C)=O)CCC2(C)CC3(C45CC6(C)CCC(OC(C)=O)C(=C)C6CC4=C(C)C(=O)O5)OC(=O)C(C)=C3CC12` (centres unmarked) [compound 5, biatractylenolide II], for which the IC50 is 33.9 µM.
